Laboratory results taken from US8772287B2, “Pyrimidinyl and 1,3,5-triazinyl benzimidazole sulfonamides and their use in cancer therapy” (VetDC, Inc., priority 2009, dated 2014).
Read-outs that look alike come from different tables or passages of the source.

Legend:
NZOV9 = assay: Cellular growth inhibition, NZOV9 (3H-thymidine incorporation); format: cell-based, human; settings: five days incubation, 3H-thymidine over the last 6 hrs, read-out: Cell IC50 NZOV9
Procedure: (§1) The compounds were evaluated against two early passage human cell lines NZB5 and NZOV9 (Marshall et al., Oncol. Res. 2004, 14, 297). The cells were grown in ITS medium (α-modified minimal essential medium supplemented insulin, transferrin, selenite, and 5% fetal bovine serum) and grown on 96-well tissue culture plates under an atmosphere of 5% O2, 5% CO2, and 90% N2. Individual wells contained 500-1,000 cells (depending on the growth rate) in a volume of 150 μL. Compounds were added at 10-fold concentration steps to a maximum of 20 μM and plates were incubated for five days, with ^3H-thymidine being added over the last 6 hrs. Cells were harvested and incorporated radioactivity measured. Duplicate samples were analyzed for each compound dose with multiple control samples.

NZB5 = assay: Cellular growth inhibition, NZB5 (3H-thymidine incorporation); format: cell-based, human; settings: five days incubation, 3H-thymidine over the last 6 hrs, read-out: Cell IC50 NZB5
Procedure: as §1

p110δ/p85 = p110δ/p85 (Homo sapiens, UniProt O00329); assay: Inhibition of isolated enzyme p110δ/p85 (lipid kinase, [γ-33P]ATP, TLC); format: biochemical; settings: recombinant enzyme, 100 μM ATP, nine concentrations, average of two experiments
Procedure: (§2) Compounds were evaluated for their ability to inhibit Class I PI 3-kinase enzymes p110δ/p85, p110α/p85, and p110β/p85. Reaction mixtures comprising 0.1 μg of a recombinant enzyme, 10 μg of L-α-phosphatidylinositol, and 2× Lipid Kinase Buffer (40 mM Tris-HCl, pH 7.4, 200 mM NaCl, 1 mM EDTA), which contains either DMSO only as a control or the test compound in DMSO (the final DMSO concentration is 1%), were activated by the addition of an ATP mix (5 mM MgCl2, 100 μM ATP, and 0.1 μL [γ^33P]ATP). Reactions were incubated at room temperature for 1 hr, and then stopped by the addition of 1M HCl. The lipids were then extracted using a two step procedure. Firstly, 200 μL of chloroform/methanol (1:1) was added, the biphasic reactions mixed and centrifuged briefly, and the inorganic phase was removed and discarded. Following this, 80 μL of methanol:HCl (1:1) was added and the same procedure followed. The organic phase (70 μL) was then transferred to a clean 1.6 mL tube and the reactions were dried using a Speedvac, with no heating, for 30 min. The reactions were spotted onto TLC plates (Merck Ltd) and developed for 1 hr in propanol-1:2 M acetic acid (13:7). The TLC plates were then dried at room temperature and quantified using a phosphorimager (StormImager, Amersham). Nine compound concentrations were used for each test compound to determine its IC50 value. Each experiment was performed twice and the average IC50 value is used herein.

p110β/p85 = p110β/p85 (Homo sapiens, UniProt P42338); assay: Inhibition of isolated enzyme p110β/p85 (lipid kinase, [γ-33P]ATP, TLC); format: biochemical; settings: recombinant enzyme, 100 μM ATP, nine concentrations, average of two experiments
Procedure: as §2

p110α/p85 = p110α/p85 (Homo sapiens, UniProt P42336); assay: Inhibition of isolated enzyme p110α/p85 (lipid kinase, [γ-33P]ATP, TLC); format: biochemical; settings: recombinant enzyme, 100 μM ATP, nine concentrations, average of two experiments
Procedure: as §2

PI3K = settings: reversible inhibitors, literature; cited from earlier work
human tumor xenografts = settings: mouse, in vivo; cited from earlier work

p110β/p85, sequence (P42338 whole entry, species assumed): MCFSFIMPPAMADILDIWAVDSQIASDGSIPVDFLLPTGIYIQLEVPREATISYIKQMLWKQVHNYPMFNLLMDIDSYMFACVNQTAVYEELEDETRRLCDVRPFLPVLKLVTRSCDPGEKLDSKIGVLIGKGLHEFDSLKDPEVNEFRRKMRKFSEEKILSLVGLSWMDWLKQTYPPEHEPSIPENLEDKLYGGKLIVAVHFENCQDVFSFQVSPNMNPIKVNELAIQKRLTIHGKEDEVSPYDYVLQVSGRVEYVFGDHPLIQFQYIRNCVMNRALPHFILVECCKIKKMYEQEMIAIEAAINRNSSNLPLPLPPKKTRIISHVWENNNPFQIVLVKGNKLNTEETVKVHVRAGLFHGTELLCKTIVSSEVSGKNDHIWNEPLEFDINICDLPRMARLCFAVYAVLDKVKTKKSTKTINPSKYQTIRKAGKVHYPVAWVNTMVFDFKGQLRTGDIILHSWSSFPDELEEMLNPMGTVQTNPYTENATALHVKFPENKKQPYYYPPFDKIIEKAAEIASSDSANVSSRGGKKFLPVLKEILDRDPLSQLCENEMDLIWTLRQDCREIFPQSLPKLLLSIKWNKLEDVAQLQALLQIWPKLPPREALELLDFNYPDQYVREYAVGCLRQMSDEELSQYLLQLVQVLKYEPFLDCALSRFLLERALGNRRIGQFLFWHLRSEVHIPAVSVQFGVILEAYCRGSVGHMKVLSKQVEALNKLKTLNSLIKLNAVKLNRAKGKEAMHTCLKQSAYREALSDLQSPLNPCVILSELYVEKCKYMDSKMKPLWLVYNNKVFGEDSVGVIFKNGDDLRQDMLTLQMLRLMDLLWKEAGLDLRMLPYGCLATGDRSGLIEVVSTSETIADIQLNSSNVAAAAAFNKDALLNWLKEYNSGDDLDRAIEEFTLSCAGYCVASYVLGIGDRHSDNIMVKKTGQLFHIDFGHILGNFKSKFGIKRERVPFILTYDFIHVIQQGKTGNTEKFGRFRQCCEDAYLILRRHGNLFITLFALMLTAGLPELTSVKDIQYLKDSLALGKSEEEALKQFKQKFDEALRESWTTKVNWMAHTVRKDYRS
p110β/p85, sequence (P27986 whole entry partner, species assumed): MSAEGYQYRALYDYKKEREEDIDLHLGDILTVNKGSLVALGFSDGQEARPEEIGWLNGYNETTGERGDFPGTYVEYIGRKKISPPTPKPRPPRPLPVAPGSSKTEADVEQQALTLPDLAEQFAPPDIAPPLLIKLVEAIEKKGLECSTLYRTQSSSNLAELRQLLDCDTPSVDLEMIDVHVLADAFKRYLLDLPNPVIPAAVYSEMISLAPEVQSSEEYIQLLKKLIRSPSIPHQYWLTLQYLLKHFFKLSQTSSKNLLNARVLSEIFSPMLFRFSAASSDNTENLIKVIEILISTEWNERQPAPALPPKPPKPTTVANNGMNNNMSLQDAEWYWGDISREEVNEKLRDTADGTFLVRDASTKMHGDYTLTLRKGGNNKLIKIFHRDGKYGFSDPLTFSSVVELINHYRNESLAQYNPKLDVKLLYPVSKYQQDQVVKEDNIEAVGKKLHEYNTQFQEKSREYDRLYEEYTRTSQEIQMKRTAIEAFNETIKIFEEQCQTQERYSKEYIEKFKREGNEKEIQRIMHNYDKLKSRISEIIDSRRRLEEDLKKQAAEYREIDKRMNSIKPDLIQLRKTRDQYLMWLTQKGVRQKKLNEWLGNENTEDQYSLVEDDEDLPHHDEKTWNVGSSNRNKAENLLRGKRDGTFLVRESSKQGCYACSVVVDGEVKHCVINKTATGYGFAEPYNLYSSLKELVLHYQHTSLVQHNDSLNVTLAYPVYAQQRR
p110δ/p85, sequence (O00329 whole entry, species assumed): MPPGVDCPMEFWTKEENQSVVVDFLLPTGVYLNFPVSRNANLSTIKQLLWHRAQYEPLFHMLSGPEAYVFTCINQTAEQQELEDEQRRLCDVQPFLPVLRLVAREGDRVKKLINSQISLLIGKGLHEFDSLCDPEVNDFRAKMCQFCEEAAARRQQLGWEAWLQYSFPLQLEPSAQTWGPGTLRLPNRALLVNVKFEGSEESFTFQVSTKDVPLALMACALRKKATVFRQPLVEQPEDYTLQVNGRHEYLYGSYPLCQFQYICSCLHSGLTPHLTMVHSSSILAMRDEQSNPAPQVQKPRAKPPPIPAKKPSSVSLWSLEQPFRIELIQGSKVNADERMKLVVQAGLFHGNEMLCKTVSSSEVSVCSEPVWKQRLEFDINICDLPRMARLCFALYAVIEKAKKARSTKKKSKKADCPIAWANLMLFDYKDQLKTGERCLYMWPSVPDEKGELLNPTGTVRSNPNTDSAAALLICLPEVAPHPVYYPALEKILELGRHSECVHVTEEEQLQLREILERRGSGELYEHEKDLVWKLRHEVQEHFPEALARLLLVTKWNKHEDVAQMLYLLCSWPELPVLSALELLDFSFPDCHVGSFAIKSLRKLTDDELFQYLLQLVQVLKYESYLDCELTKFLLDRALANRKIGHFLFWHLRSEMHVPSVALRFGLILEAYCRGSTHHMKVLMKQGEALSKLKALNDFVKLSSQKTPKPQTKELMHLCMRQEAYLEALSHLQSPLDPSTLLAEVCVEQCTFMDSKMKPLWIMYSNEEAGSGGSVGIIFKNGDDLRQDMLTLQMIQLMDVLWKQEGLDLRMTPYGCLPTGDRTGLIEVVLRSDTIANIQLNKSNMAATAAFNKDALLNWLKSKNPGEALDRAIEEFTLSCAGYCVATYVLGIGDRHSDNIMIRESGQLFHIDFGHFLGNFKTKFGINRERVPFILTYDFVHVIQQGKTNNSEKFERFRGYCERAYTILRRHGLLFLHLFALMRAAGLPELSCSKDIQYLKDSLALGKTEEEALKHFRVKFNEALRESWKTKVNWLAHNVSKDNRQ
p110δ/p85, sequence (P27986 whole entry partner, species assumed): as the sequence (P27986 whole entry partner, species assumed) above
p110α/p85, sequence (P42336 whole entry): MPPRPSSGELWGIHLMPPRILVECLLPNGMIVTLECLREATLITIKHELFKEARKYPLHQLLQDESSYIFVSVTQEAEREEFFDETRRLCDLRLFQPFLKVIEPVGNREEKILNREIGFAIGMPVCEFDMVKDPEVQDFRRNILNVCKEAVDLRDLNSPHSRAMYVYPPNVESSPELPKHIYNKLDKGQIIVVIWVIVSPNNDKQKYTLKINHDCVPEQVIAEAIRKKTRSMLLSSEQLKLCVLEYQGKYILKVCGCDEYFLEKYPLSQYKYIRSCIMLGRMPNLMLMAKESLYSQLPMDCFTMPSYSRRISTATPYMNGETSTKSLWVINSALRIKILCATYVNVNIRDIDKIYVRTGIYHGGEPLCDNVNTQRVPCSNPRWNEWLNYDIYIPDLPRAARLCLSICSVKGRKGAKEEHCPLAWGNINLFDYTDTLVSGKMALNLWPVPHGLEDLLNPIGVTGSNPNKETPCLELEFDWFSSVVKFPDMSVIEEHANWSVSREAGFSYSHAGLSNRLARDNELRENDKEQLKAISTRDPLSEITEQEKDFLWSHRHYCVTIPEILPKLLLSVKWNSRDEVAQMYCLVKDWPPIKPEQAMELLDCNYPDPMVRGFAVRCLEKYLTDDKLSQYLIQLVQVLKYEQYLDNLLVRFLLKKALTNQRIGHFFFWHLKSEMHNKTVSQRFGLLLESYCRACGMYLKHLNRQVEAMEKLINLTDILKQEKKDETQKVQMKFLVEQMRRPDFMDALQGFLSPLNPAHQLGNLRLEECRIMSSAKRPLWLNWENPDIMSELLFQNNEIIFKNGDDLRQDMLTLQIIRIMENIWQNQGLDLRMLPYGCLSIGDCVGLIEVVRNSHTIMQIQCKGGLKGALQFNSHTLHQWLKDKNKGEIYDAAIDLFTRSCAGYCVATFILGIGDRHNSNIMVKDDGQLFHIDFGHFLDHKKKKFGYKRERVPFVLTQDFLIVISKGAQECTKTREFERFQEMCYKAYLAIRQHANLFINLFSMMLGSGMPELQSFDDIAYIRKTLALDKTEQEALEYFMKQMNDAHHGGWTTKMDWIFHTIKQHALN
p110α/p85, sequence (P27986 whole entry partner): as the sequence (P27986 whole entry partner, species assumed) above

melting point | IC50 (p110δ/p85) | IC50 (p110β/p85) | IC50 (p110α/p85) | Compound | also measured
242 to 244 °C | < 100 nM | < 100 nM | < 100 nM | C=CS(=O)(=O)N1CCN(c2nc(N3CCOCC3)nc(-n3c(C(F)F)nc4c(OC)cccc43)n2)CC1 [Example 3, 2-(difluoromethyl)-4-methoxy-1-{4-(4-morpholinyl)-6-[4-(vinylsulfonyl)-1-piperazinyl]-1,3,5-triazin-2-yl}-1H-benzimidazole] | IC50 (NZOV9; Homo sapiens, NZOV9): < 100 nM; IC50 (NZB5; Homo sapiens, NZB5): 100 to 1000 nM
191 to 193 °C | < 100 nM | < 100 nM | < 100 nM | COc1cccc2c1nc(C(F)F)n2-c1nc(N2CCOCC2)cc(N(C)C2CCN(S(C)(=O)=O)CC2)n1 [Example 6, 2-[2-(difluoromethyl)-4-methoxy-1H-benzimidazol-1-yl]-N-methyl-N-[1-(methylsulfonyl)-4-piperidinyl]-6-(4-morpholinyl)-4-pyrimidinamine] | IC50 (NZOV9; Homo sapiens, NZOV9): < 100 nM; IC50 (NZB5; Homo sapiens, NZB5): 100 to 1000 nM
 |  | > 1000 nM |  | CN(C)CCCOc1cccc2c1nc(C(F)F)n2-c1nc(OC2CCN(S(C)(=O)=O)CC2)nc(N2CCOCC2)n1 [Example 7, N-[3-({2-(difluoromethyl)-1-[4-{[1-(methylsulfonyl)-4-piperidinyl]oxy}-6-(4-morpholinyl)-1,3,5-triazin-2-yl]-1H-benzimidazol-4-yl}oxy)propyl]-N,N-dimethylamine] | IC50 (NZOV9; Homo sapiens, NZOV9): 100 to 1000 nM; IC50 (NZB5; Homo sapiens, NZB5): 100 to 1000 nM
 |  | > 1000 nM |  | COc1cccc2c1nc(C(F)F)n2-c1nc(N2CCOCC2)nc(N(CCCN(C)C)C2CCN(S(=O)(=O)CCl)CC2)n1 [Example 59, N^1-{1-[(chloromethyl)sulfonyl]-4-piperidinyl}-N^1-[4-[2-(difluoromethyl)-4-methoxy-1H-benzimidazol-1-yl]-6-(4-morpholinyl)-1,3,5-triazin-2-yl]-N^3,N^3-dimethyl-1,3-propanediamine] | 
230 to 232 °C | < 100 nM |  | < 100 nM | COc1cccc2c1nc(C(F)F)n2-c1nc(N2CCOCC2)nc(N2CCC(NS(=O)(=O)CCl)CC2)n1 [Example 61, chloro-N-{1-[4-[2-(difluoromethyl)-4-methoxy-1H-benzimidazol-1-yl]-6-(4-morpholinyl)-1,3,5-triazin-2-yl]-4-piperidinyl}methanesulfonamide] | 
272 to 273 °C | > 1000 nM |  | 100 to 1000 nM | COc1cccc2c1nc(C(F)F)n2-c1nc(N2CCOCC2)nc(N2CCN(S(=O)(=O)C(F)(F)F)CC2)n1 [Example 86, 2-(difluoromethyl)-4-methoxy-1-(4-(4-morpholinyl)-6-{4-[(trifluoromethyl)-sulfonyl]-1-piperazinyl}-1,3,5-triazin-2-yl)-1H-benzimidazole] | 
282 to 285 °C | 100 to 1000 nM |  | < 100 nM | COc1cccc2c1nc(C(F)F)n2-c1nc(N2CCOCC2)nc(N2CCC(NS(=O)(=O)C(F)(F)F)CC2)n1 [Example 87, N-{1-[4-[2-(difluoromethyl)-4-methoxy-1H-benzimidazol-1-yl]-6-(4-morpholinyl)-1,3,5-triazin-2-yl]-4-piperidinyl}trifluoromethanesulfonamide] | 
 | 100 to 1000 nM |  | < 100 nM | COc1cccc2c1nc(C(F)F)n2-c1nc(N2CCOCC2)nc(N2CC(NS(=O)(=O)C(F)(F)F)C2)n1 [Example 88, N-{1-[4-[2-(difluoromethyl)-4-methoxy-1H-benzimidazol-1-yl]-6-(4-morpholinyl)-1,3,5-triazin-2-yl]-3-azetidinyl}(trifluoro)methanesulfonamide] | 
 | > 1000 nM |  |  | COc1cccc2c1nc(C(F)F)n2-c1nc(-c2ccc(S(=O)(=O)N3CCN(C)CC3)cc2)nc(N2CCOCC2)n1 [Example 95, 2-(difluoromethyl)-4-methoxy-1-[4-{4-[(4-methyl-1-piperazinyl)sulfonyl]phenyl}-6-(4-morpholinyl)-1,3,5-triazin-2-yl]-1H-benzimidazole] | 
302 to 306 °C | < 100 nM |  | < 100 nM | COc1cccc2c1nc(C(F)F)n2-c1nc(Nc2ccc(NS(C)(=O)=O)nc2)nc(N2CCOCC2)n1 [Example 100, N-(5-{[4-[2-(difluoromethyl)-4-methoxy-1H-benzimidazol-1-yl]-6-(4-morpholinyl)-1,3,5-triazin-2-yl]amino}-2-pyridinyl)methanesulfonamide] | IC50 (NZOV9; Homo sapiens, NZOV9): < 100 nM; IC50 (NZB5; Homo sapiens, NZB5): 100 to 1000 nM
250 to 253 °C | < 100 nM | 100 to 1000 nM | < 100 nM | COc1cccc2c1nc(C(F)F)n2-c1nc(Nc2ccc(N(C)S(C)(=O)=O)nc2)nc(N2CCOCC2)n1 [Example 101, N-(5-{[4-[2-(difluoromethyl)-4-methoxy-1H-benzimidazol-1-yl]-6-(4-morpholinyl)-1,3,5-triazin-2-yl]amino}-2-pyridinyl)-N-methylmethanesulfonamide] | IC50 (NZOV9; Homo sapiens, NZOV9): < 100 nM; IC50 (NZB5; Homo sapiens, NZB5): < 100 nM
 |  |  |  | Cc1ccccc1-n1c(Cn2cnc3c(N)ncnc32)nc2cccc(C)c2c1=O [IC87114] | PI3K isoform selectivity (PI3K): δ-selective
 |  |  |  | O=c1cc(N2CCOCC2)oc2c(-c3ccccc3)cccc12 [LY294002] | tolerability (human tumor xenografts): well-tolerated
 |  |  |  | Oc1cccc(-c2nc(N3CCOCC3)c3oc4ncccc4c3n2)c1 [PI103] | PI3K isoform selectivity (PI3K): slightly α-selective
 |  |  |  | Cc1cc(C(C)Nc2ccccc2)c2nc(N3CCOCC3)cc(=O)n2c1 (stereo not shown) [TGX221] | PI3K isoform selectivity (PI3K): β-selective
 |  |  |  | FC(F)c1nc2ccccc2n1-c1nc(N2CCOCC2)nc(N2CCOCC2)n1 [ZSTK474] | PI3K isoform selectivity (PI3K): non-selective
 | 100 to 1000 nM | > 1000 nM | 100 to 1000 nM | N-{(3S)-1-[4-[2-(difluoromethyl)-4-methoxy-1H-benzimidazol-1-yl]-6-(4-morpholinyl)-1,3,5-triazin-2-yl]piperidinyl}-N-[3-(dimethylamino)propyl]methane-sulfonamide [Example 63] | IC50 (NZOV9): 100 to 1000 nM; IC50 (NZB5): 100 to 1000 nM
